Measured values reported in patent US20260217761A1, “ANTIMICROBIAL PEPTIDE RICH IN TRYPTOPHAN AND HAVING SELF-ASSEMBLY PROPERTIES, AND USE THEREOF” (NANOQURE BIOTECH (SHENZHEN) CO., LTD., priority 2022, published 2026).
In brackets after ≈: the same amount, converted by molar mass. Several values for one entry are separate records, joined by “and”; a condition that tells them apart may be missing. Equal entries are not always repeated. Where two headings read alike, the source gives them in different places. Residues, ends and D or L forms follow the SMILES beside them. No end group written: not given here.

Experiments:
[1] = system: mixed bacterial solution of Pseudomonas aeruginosa and Staphylococcus aureus; format: cell-based, Pseudomonas aeruginosa PAO1 and Staphylococcus aureus SP1
Procedure: • A. The antimicrobial peptide was prepared into a certain stock solution for use. 0.01% acetic acid (containing 0.2% BSA) was used as the diluent, and a series of gradient antimicrobial peptide solutions were prepared sequentially by a two-fold dilution method. • B. 100 μL of the above-mentioned antimicrobial peptide stock solution was taken and placed in a 96-well cell culture plate. Then, an equal volume of the test bacterial solution (approximately 10^5 cells/mL) was added to each well. A positive control (containing the bacterial solution but no antimicrobial peptide) and a negative control (containing neither bacterial solution nor the peptide) were included, respectively. […] The culture plate was placed in a constant temperature incubator at 37° C. for 20 h. The minimum inhibitory concentration is determined as the condition where no turbidity is observed at the bottom of the well with naked eyes.

[2] = system: various bacteria; test: MIC against various bacteria (broad-spectrum antimicrobial activity); format: cell-based
Procedure: • A. The antimicrobial peptide was prepared into a certain stock solution for use. 0.01% acetic acid (containing 0.2% BSA) was used as the diluent, and a series of gradient antimicrobial peptide solutions were prepared sequentially by a two-fold dilution method. • B. 100 μL of the above-mentioned antimicrobial peptide stock solution was taken and placed in a 96-well cell culture plate. Then, an equal volume of the test bacterial solution (approximately 10^5 cells/mL) was added to each well. A positive control (containing the bacterial solution but no antimicrobial peptide) and a negative control (containing neither bacterial solution nor the peptide) were included, respectively. The test bacterial species include Pseudomonas aeruginosa (Pseudomonas aeruginosa PL1, Pseudomonas aeruginosa SP1), Staphylococcus aureus (Staphylococcus aureus 544, Staphylococcus aureus 103), Escherichia coli (Escherichia coli 729, Escherichia coli 112), Klebsiella Pneumoniae (Klebsiella Pneumoniae 106, Klebsiella Pneumoniae 727), Streptococcus pneumonia 383, Acinetobacter baumannii (Acinetobacter baumannii 946, Acinetobacter baumannii 780) (FIG. 1), or Pseudomonas aeruginosa (Pseudomonas aeruginosa PAO1), Staphylococcus aureus (Staphylococcus aureus SP1), and a mixed solution of the above two bacteria (FIG. 2). • C. The culture plate was placed in a constant temperature incubator at 37° C. for 20 h. The minimum inhibitory concentration is determined as the condition where no turbidity is observed at the bottom of the well with naked eyes.
• A. The polypeptide Z4 composed entirely of dextrorotatory amino acids is called the dextrorotatory isomer of polypeptide Z4. The polypeptide Z4-D was prepared into a certain stock solution for use. […] The minimum inhibitory concentration is determined as the condition where no turbidity is observed at the bottom of the well with naked eyes.

[3] = Self-assembly observed by scanning electron microscopy (SEM); format: physicochemical; settings: in phosphate-buffered saline (PBS) (pH=7.2)
Procedure: Without being bound by any theory, it is deduced that the reason why WW++W++WW has better self-assembly activity and MIC than +++WWW+++ is based on the WW at both ends of the peptide, rather than the number of positively charged amino acids (K and/or R). • B. Observation of polypeptide Z4 by scanning electron microscopy (SEM): To prepare SEM samples for observing the self-assembly of the polypeptide, 10 μL of the polypeptide was placed on tin foil that had been ultrasonically treated for 30 min.
After drying, the samples were sputter-coated with gold. All samples were observed using Gimini SEM 500.

[4] = system: P. aeruginosa; test: Killing curve (bactericidal activity) against P. aeruginosa; format: cell-based, Pseudomonas aeruginosa
Procedure: (§1) • A. To determine the bactericidal ability of polypeptide Z4, Pseudomonas aeruginosa and Staphylococcus aureus were suspended in PBS until OD600 nm=0.4, then diluted 1000 times with fresh PBS and mixed in equal volumes. Polypeptide Z4 was added to the bacterial suspension at concentrations of 1×MIC and 2×MIC. […] After incubation at 37° C. for 18 h, the single colonies of the microorganisms were counted. The experiment was repeated 3 times and the average value was calculated.

[5] = system: S. aureus; test: Killing curve (bactericidal activity) against S. aureus; format: cell-based, Staphylococcus aureus
Procedure: as §1

[6] = system: mixed biofilm of P. aeruginosa and S. aureus; test: Anti-biofilm activity on formed mixed biofilm (crystal violet); format: cell-based; settings: for removal effect on the formed biofilm: 3 h
Procedure: • B. To investigate the anti-biofilm activity of polypeptide Z4, P. aeruginosa and S. aureus were grown overnight at 37° C. in tryptic soy broth medium until the logarithmic phase, and then diluted to 1×10^7 CFU/mL and 1×10^6 CFU/mL respectively, and mixed in equal amounts to prepare a mixed bacterial culture. Subsequently, 100 μL of the mixed bacterial suspension was incubated at 37° C. for 24 h to obtain a mixed biofilm. Then, antimicrobial peptides with a final concentration of 2-32 μM were added to a 96-well plate. After incubation at 37° C. for 3 h, the medium was discarded, and the 96-well plate was washed three times with PBS (pH=7.2). After drying at room temperature, 200 μL/well of […] crystal violet staining solution was added to the plate. After incubation at 37° C. for 30 minutes, it was rinsed three times with PBS. After air drying at room temperature, 200 μL/well of 95% ethanol was added and incubated at 37° C. for 30 min, and the absorbance was measured at 595 nm. A total of 3 experiments were set up, and each experiment was repeated 3 times.

[7] = system: P. aeruginosa in the catheter biofilm; test: In vivo bactericidal activity in the catheter biofilm, P. aeruginosa; settings: mice, versus PBS control
[8] = system: S. aureus in the catheter biofilm; test: In vivo bactericidal activity in the catheter biofilm, S. aureus; settings: mice, versus PBS control
[9] = system: IL-6; test: IL-6 content in the skin tissue at the infected site; format: in vivo; settings: mice
[10] = system: inflammatory cells; test: Inflammatory cells in sections of skin tissue at the infected site; format: in vivo; settings: mice, versus PBS control
[11] = system: mixed bacterial solution of P. aeruginosa PAO1 and S. aureus SP1; format: cell-based
Procedure: After ultrasonic treatment of polypeptide Z4 and polypeptide Z4-D for 30 min, they were placed at room temperature for 2 h to promote their self-assembly. Subsequently, proteinase K with a final concentration of 0.2 g/mL was mixed with the polypeptide solution (final concentration of 640 μM) and incubated at 37° C. for 0, 30, 60, 90 or 120 min respectively. Then, according to the scheme described in Example 2, the MICs of the polypeptides against the mixed bacterial solution of P. aeruginosa PAO1 and S. aureus SP1 under different treatment conditions were determined.

NCCCC[C@H](NC(=O)[C@H](CCCCN)NC(=O)[C@H](Cc1c[nH]c2ccccc12)NC(=O)[C@H](CCCCN)NC(=O)[C@H](CCCCN)NC(=O)[C@H](Cc1c[nH]c2ccccc12)NC(=O)[C@@H](N)Cc1c[nH]c2ccccc12)C(=O)N[C@@H](Cc1c[nH]c2ccccc12)C(=O)N[C@@H](Cc1c[nH]c2ccccc12)C(N)=O [Z4, WWKKWKKWW-NH2] (H-WWKKWKKWW-NH2; N-terminus assumed)
minimum inhibitory concentration (MIC) [1]: 4 µM (≈ 5.84 µg/mL) | minimum inhibitory concentration (MIC) ([1]; mixed bacterial solution of Pseudomonas aeruginosa and Staphylococcus aureus): 4 µM (≈ 5.84 µg/mL) | broad-spectrum antimicrobial activity [2]: good broad-spectrum antimicrobial activity | average particle size of self-assembled nanomicelle [3]: 174.62 nanometers | time within which all P. aeruginosa were killed ([4]; 1×MIC (4 μM)): ≤ 60 min | survival number of P. aeruginosa ([4]; 1×MIC, 0 min): 134000 CFU/mL and 112000 CFU/mL and 104000 CFU/mL | survival number of P. aeruginosa ([4]; 1×MIC, 60 min): 0 CFU/mL | survival number of P. aeruginosa ([4]; 1×MIC, 120 min): 0 CFU/mL | survival number of P. aeruginosa ([4]; 1×MIC, 180 min): 0 CFU/mL | survival number of P. aeruginosa ([4]; 1×MIC, 240 min): 0 CFU/mL | survival number of P. aeruginosa ([4]; 1×MIC, 300 min): 0 CFU/mL | time within which all P. aeruginosa were killed ([4]; 2×MIC (8 μM)): ≤ 30 min | survival number of P. aeruginosa ([4]; 2×MIC, 0 min): 186000 CFU/mL and 136000 CFU/mL and 132000 CFU/mL | survival number of P. aeruginosa ([4]; 2×MIC, 30 min): 0 CFU/mL | survival number of P. aeruginosa ([4]; 2×MIC, 60 min): 0 CFU/mL | survival number of P. aeruginosa ([4]; 2×MIC, 120 min): 0 CFU/mL | survival number of P. aeruginosa ([4]; 2×MIC, 180 min): 0 CFU/mL | survival number of P. aeruginosa ([4]; 2×MIC, 240 min): 0 CFU/mL | bactericidal rate against P. aeruginosa compared with gentamicin ([4]; compared with gentamicin): faster bactericidal rate | time within which all S. aureus were killed ([5]; 1×MIC (4 μM)): ≤ 360 min | survival number of S. aureus ([5]; 1×MIC, 300 min): 2000 CFU/mL | survival number of S. aureus ([5]; 1×MIC, 360 min): 0 CFU/mL | time within which all S. aureus were killed ([5]; 2×MIC (8 μM)): ≤ 360 min | survival number of S. aureus ([5]; 2×MIC, 360 min): 0 CFU/mL | bactericidal rate against S. aureus compared with gentamicin ([5]; compared with gentamicin): no significant difference in the bactericidal rate | removal effect on the formed biofilm ([6]; concentration 4 μM): 32.16% and 56.39% and 56.88% | removal effect on the formed biofilm ([6]; concentration 8 μM): 28.16% and 29.51% and 42.64% | anti-biofilm activity ([6]; mixed biofilm): good and direct anti-biofilm activity | concentration at which more than 50% of biofilm is removed ([6]; mixed biofilm): 8 μm | concentration at which more than 50% of the biofilm is removed ([6]; mixed biofilm): 8 µM | number of Pseudomonas aeruginosa colonized in the catheter [7]: significantly reduced | number of Staphylococcus aureus colonized in the catheter [8]: significantly reduced | IL-6 content in the skin tissue at the infected site ([9]; Biofilm + Z4): 110.6228 pg/g and 89.73 pg/g and 91.09 pg/g and 95.94 pg/g and 137.9124 pg/g and 127.2606 pg/g and 88.31 pg/g and 94.64 pg/g | level of IL-6 in the skin tissue ([9]; versus PBS control): reduced | number of infiltrated inflammatory cells [10]: reduced | MIC after proteinase K treatment ([11]; 2 h): 8 µM (≈ 11.7 µg/mL) | decrease of antimicrobial activity due to hydrolysis by proteinase K ([11]; proteinase K treatment, 90 minutes): 50% | MIC before increase under proteinase K treatment ([11]; proteinase K treatment, before 90 minutes): 4 µM (≈ 5.84 µg/mL)

Gentamicin
survival number of P. aeruginosa ([4]; 1×MIC, 0 min): 140000 CFU/mL and 126000 CFU/mL and 130000 CFU/mL and 122000 CFU/mL | survival number of P. aeruginosa ([4]; 1×MIC, 15 min): 116000 CFU/mL and 120000 CFU/mL and 140000 CFU/mL and 108000 CFU/mL | survival number of P. aeruginosa ([4]; 1×MIC, 30 min): 104000 CFU/mL and 126000 CFU/mL and 110000 CFU/mL | survival number of P. aeruginosa ([4]; 1×MIC, 60 min): 112000 CFU/mL and 92000 CFU/mL and 106000 CFU/mL and 110000 CFU/mL | survival number of P. aeruginosa ([4]; 1×MIC, 120 min): 30000 CFU/mL and 52000 CFU/mL and 54000 CFU/mL | survival number of P. aeruginosa ([4]; 1×MIC, 300 min): 0 CFU/mL | survival number of P. aeruginosa ([4]; 2×MIC, 0 min): 142000 CFU/mL and 134000 CFU/mL and 122000 CFU/mL and 106000 CFU/mL | survival number of P. aeruginosa ([4]; 2×MIC, 15 min): 166000 CFU/mL and 104000 CFU/mL and 136000 CFU/mL and 128000 CFU/mL | survival number of P. aeruginosa ([4]; 2×MIC, 30 min): 116000 CFU/mL and 154000 CFU/mL and 126000 CFU/mL and 130000 CFU/mL | survival number of P. aeruginosa ([4]; 2×MIC, 60 min): 92000 CFU/mL and 82000 CFU/mL and 70000 CFU/mL and 68000 CFU/mL | survival number of P. aeruginosa ([4]; 2×MIC, 240 min): 0 CFU/mL | survival number of S. aureus ([5]; 1×MIC, 30 min): 2000 CFU/mL and 4000 CFU/mL | survival number of S. aureus ([5]; 1×MIC, 180 min): 2000 CFU/mL and 4000 CFU/mL | survival number of S. aureus ([5]; 1×MIC, 360 min): 0 CFU/mL | survival number of S. aureus ([5]; 2×MIC, 300 min): 0 CFU/mL | survival number of S. aureus ([5]; 2×MIC, 360 min): 0 CFU/mL | removal effect on the formed biofilm ([6]; concentration 2 μM): 90.78% and 99.18% and 100% | removal effect on the formed biofilm ([6]; concentration 4 μM): 67.84% and 74.15% and 105.2663% | removal effect on the formed biofilm ([6]; concentration 8 μM): 86.98% and 97.37% and 78.85% | removal effect on the formed biofilm ([6]; concentration 16 μM): 64.53% and 107.33% and 74.22% | concentration at which more than 50% of the biofilm is removed ([6]; mixed biofilm): 32 µM

KWKWWWKWK-NH2 [Z1, centrally symmetric 9-peptide of tryptophan and lysine]
broad-spectrum antimicrobial activity [2]: good broad-spectrum antimicrobial activity
